Results as given in patent publication US10368545B2, “Substituted 2-thioimidazolylcarboxamides as pesticides” (BAYER CROPSCIENCE AKTIENGESELLSCHAFT, priority 2015, dated 2019).
Where “and” joins values, the source holds several entries; their conditions need not be identical. Equal values may be shown once. Read-outs that look alike come from different tables or passages of the source.

Experiments:
[1] = test system: green peach aphid (Myzus persicae); test: Myzus persicae spray test (Chinese cabbage leaf discs); assay type: in vivo; conditions: application rate 500 g/ha, after 5 or 6 days, Chinese cabbage leaf discs; for pest or weed control at 500 g/ha: Myzus persicae, foliar, read-out: efficacy (aphids killed)
Procedure: Myzus persicae—Spray Test
Solvent: 78 parts by weight of acetone • • 1.5 parts by weight of dimethylformamide
(§1) Emulsifier: alkylaryl polyglycol ether
(§2) To produce a suitable active compound preparation, 1 part by weight of active compound is dissolved using the stated parts by weight of solvent and made up with water containing an emulsifier concentration of 1000 ppm until the desired concentration is attained. To produce further test concentrations, the preparation is diluted with emulsifier-containing water.
Discs of Chinese cabbage leaves (Brassica pekinensis) infested by all stages of the green peach aphid (Myzus persicae) are sprayed with an active compound preparation of the desired concentration.
After 5 or 6 days, the efficacy in % is determined. 100% means that all the aphids were killed; 0% means that no aphids were killed.

[2] = log P by HPLC on reversed-phase C18 columns (OECD Guideline 117); assay type: physicochemical; conditions: for logP[a]: method [a]; for logP[b]: method [b]; for chromatographic logP: reversed-phase C18 HPLC column
Procedure: The log P values were determined in accordance with OECD Guideline 117 (EC Directive 92/69/EEC) by HPLC (high-performance liquid chromatography) using reversed-phase (RP) columns (C18), by the following methods:
[a] The LC-MS determination in the acidic range was carried out at pH 2.7 with 0.1% aqueous formic acid and acetonitrile (contains 0.1% formic acid) as mobile phases; linear gradient from 10% acetonitrile to 95% acetonitrile.
[b] LC-MS determination in the neutral range was carried out at pH 7.8 with 0.001 molar aqueous ammonium hydrogencarbonate solution and acetonitrile as mobile phases; linear gradient from 10% acetonitrile to 95% acetonitrile.

[3] = test system: green peach aphid (Myzus persicae); test: Contrasting example: Myzus persicae spray test (MYZUPE); assay type: in vivo; conditions: MYZUPE, 100 g ai/ha; for pest or weed control at 100 g/ha: Myzus persicae, 144 h, read-out: % efficacy
Procedure: Myzus persicae—Spray Test (MYZUPE)
Solvents: 78.0 parts by weight of acetone • • 1.5 parts by weight of dimethylformamide
as §1, §2
Discs of Chinese cabbage leaves (Brassica pekinensis), infested by all stages of the green peach aphid (Myzus persicae) are sprayed with an active compound preparation of the desired concentration.
After the desired period of time, the efficacy in % is determined. 100% means that all aphids were killed; 0% means that no aphids were killed.

| logP[a] [2] | logP[b] [2] | chromatographic logP ([2]; pH 2.7, acidic range, pH 2.7, 0.1% aqueous formic acid / acetonitrile, read-out: log P[a]) | chromatographic logP ([2]; pH 7.8, neutral range, pH 7.8, 0.001 molar aqueous ammonium hydrogencarbonate / acetonitrile, read-out: log P[n]) | chromatographic logP ([2]; pH 2.7, method [a], read-out: logP[a]) | chromatographic logP ([2]; pH 7.8, method [b], read-out: logP[b]) | SMILES | efficacy (aphids killed) [1] | % efficacy ([3]; 5 dat) | % efficacy ([3]; 6 dat) | pest or weed control at 500 g/ha [1] | pest or weed control at 100 g/ha ([3]; 6 dat) |
| --- | --- | --- | --- | --- | --- | --- | --- | --- | --- | --- | --- |
| 1.74 | 1.80 | – | – | – | – | CN(C(=O)c1cnc([S+]([O-])c2cccc(C(F)(F)F)c2)n1C)c1cccnc1 (stereo not drawn) [I-A-96] | 100% | 90% | – | – | – |
| 1.58 | – | – | – | – | – | CN(C(=O)c1cnc(Sc2nccc(C(F)(F)F)n2)n1C)c1cccnc1 [I-A-100] | 90% | – | 90% | – | – |
| 1.67 | 1.99 | – | – | – | – | CCCCSc1ncc(C(=O)N(C)c2cccnc2)n1C [I-A-5] | 90% | – | 100% | – | – |
| 1.00 | – | – | – | – | – | Cc1ccnc(Sc2ncc(C(=O)N(C)c3cccnc3)n2C)n1 [I-A-101] | 100% | – | 90% | – | – |
| 1.23 | 1.55 | – | – | – | – | CSCCSc1ncc(C(=O)N(C)c2cccnc2)n1C [I-A-26] | 100% | – | 70% | – | – |
| 0.87 | 1.00 | – | – | – | – | CN(C(=O)c1cnc(Sc2nnc(C(F)F)n2C)n1C)c1cccnc1 [I-A-139] | 100% | 90% | – | – | – |
| 1.01 | 1.18 | – | – | – | – | CN(C(=O)c1cnc(Sc2ccccn2)n1C)c1cccnc1 [I-A-65] | 100% | – | 100% | – | – |
| – | – | 1.28 | 1.81 | – | – | CN(C(=O)c1cnc(SCC2CC2)n1C)c1cccnc1 [I-A-2] | – | – | – | 100% | 90% |
| 1.22 | 1.27 | – | – | – | – | CN(C(=O)c1cnc([S+]([O-])c2ccc(F)cc2)n1C)c1cccnc1 (stereo not drawn) [I-A-84] | 90% | – | 70% | – | – |
| 0.16 | 1.11 | – | – | – | – | CN(C(=O)c1cnc(SCc2ccncc2)n1C)c1cccnc1 [I-A-116] | 100% | – | 90% | – | – |
| 1.20 | – | – | – | – | – | COc1ccnc(Sc2ncc(C(=O)N(C)c3cccnc3)n2C)n1 [I-A-106] | 100% | – | 90% | – | – |
| 1.08 and 1.11 | 1.40 | – | – | – | – | C=CCSc1ncc(C(=O)N(C)c2cccnc2)n1C [I-A-27] | 90% | – | 70% | – | – |
| 1.55 | 1.75 | – | – | – | – | CN(C(=O)c1cnc(Sc2ccccc2)n1C)c1cccnc1 [I-A-11] | 100% | – | 90% | – | – |
| – | – | – | – | 1.66 | 1.87 | CN(C(=O)c1cnc(Sc2ccc(F)cc2)n1C)c1cccnc1 [I-A-62] | – | – | – | 90% | 70% |
| 1.55 | 2.11 | – | – | – | – | CN(C)c1ccc(Sc2ncc(C(=O)N(C)c3cccnc3)n2C)cc1 [I-A-59] | 90% | – | 90% | – | – |
| 1.41 | 1.54 | – | – | – | – | CN(C(=O)c1cnc(SCC(F)(F)F)n1C)c1cccnc1 [I-A-10] | 100% | – | 100% | – | – |
| 0.62 | 0.89 | – | – | – | – | Cc1nnc(Sc2ncc(C(=O)N(C)c3cccnc3)n2C)o1 [I-A-135] | 100% | 90% | – | – | – |
| 1.04 | 1.20 | – | – | – | – | CN(C(=O)c1cnc([S+]([O-])c2ccccc2)n1C)c1cccnc1 (stereo not drawn) [I-A-87] | 90% | – | 90% | – | – |
| 1.37 | 1.58 | – | – | – | – | CN(C(=O)c1cnc(SCc2ccc(Cl)nc2)n1C)c1cccnc1 [I-A-122] | 100% | – | 90% | – | – |
| 2.09 | 2.17 | – | – | – | – | CN(C(=O)c1cnc(SCC(F)(F)C(F)(F)Cl)n1C)c1cccnc1 [I-A-46] | 100% | 90% | – | – | – |
| 2.68 | 2.76 | – | – | – | – | CC(C)CCSc1ncc(C(=O)N(C)c2cccnc2)n1C [I-A-53] | 100% | 100% | – | – | – |
